Data on six molecules can be found in patent US4423071A, “Polyol derivatives, processes for preparing the same and their uses in therapeutics” (Sanofi, priority 1979, dated 1983).

The subject of data set [1] is Pentylenetetrazol-induced seizure. Put plainly: Pentylenetetrazol-induced seizure (anticonvulsant action). The format is in vivo. As to conditions: rats, oral, ester 600 mg/kg, acid 100 mg/kg, pentylenetetrazol 125 mg/kg i.p. The procedure:
The results of trials performed with such di-n-propylacetyl derivatives in order to determine the anticonvulsant action are set out below.
The anticonvulsant action was determined using pentylenetetrazol as convulsant agent.
Batches of 10 rats were treated by oral route with a dose of 600 mg/kg of glyceryl 1-(di-n-propylacetate).
At various times after administration, the animals received an intraperitoneal dose of 125 mg/kg of pentylenetetrazol.
The percentage of protection against the convulsive seizure was then determined at each of the times in question.
A similar trial was carried out with 100 mg/kg of di-n-propylacetic acid.
This dose represents the amount of di-n-propylacetic acid required to provide a di-n-propylacetic acid blood-level equivalent to the maximum level obtained with 600 mg/kg of glyceryl 1-(di-n-propylacetate). The results obtained are given in the following Table in which are shown the percentage of protection achieved at the various times indicated: […]

A short description of data set [2]: Pharmacokinetic trials with animals (species not specified), release of parent acid. In kind it is in vivo, animal.
On the set-up of data set [3]: species or system humans. Conditions: in vivo. The procedure: FIG. 8: represents blood-levels in di-n-propylacetic acid obtained from:
(a) An oral dose of 600 mg of glyceryl 1-(di-n-propylacetate) (Curve 1)
(b) An oral dose of 476 mg of glyceryl 1,2-bis-(-di-n-propylacetate) (Curve 2)
(c) An oral dose of 460 mg of sodium di-n-propylacetate (Curve 3)
FIG. 9: represents the blood-levels in di-n-propylacetic acid obtained from the oral administration of 1000 mg of glyceryl 1,2-bis-(di-n-propylacetate) every 24 hours for 4 days.
FIG. 10: represents the blood-levels in di-n-propylacetic acid obtained from:
(a) An oral dose of 1000 mg of mixtures of glyceryl 1,2-bis-(di-n-propylacetate)/glyceryl 1,3-bis-(di-n-propylacetate)
("Mixtures A and B" referred to above) (Curves 1 to 5)
(b) An oral dose of 1000 mg of sodium di-n-propylacetate (Curve 6)
FIG. 11: represents the blood-levels in di-n-propylacetic acid obtained from an oral dose of 1000 mg of 1,2-propanediol bis-(di-n-propylacetate).

Data set [4] has as its system rats. The data set is described as follows: Acute toxicity tests in rats. Conditions: rat, in vivo. The source says:
(§1) The results of acute toxicity tests obtained with compounds of the invention are given below:

The nature of data set [5]: Acute toxicity tests in rats. As to conditions: rat, in vivo; rats, oral route.
Excerpt: as §1

Data set [6] is described as follows: Acute toxicity tests in mice. Conditions: mouse, in vivo, oral route.
On the set-up of data set [7]: species or system rats. Conditions: rat, in vivo, po, 600 mg/kg. How it is done:
The first series of drawings represent blood-levels in acid of formula I above in relation to time, this acid being either released from a salt thereof or from an ester of the invention.
FIG. 1: represents blood-levels in di-n-propylacetic acid obtained from:
(a) An oral dose to rats of 600 mg/kg of either: glyceryl 1-(di-n-propylacetate) (Curve 1) or glyceryl 1,2-bis-(di-n-propylacetate) (Curve 2) or glyceryl 1,3-bis-(di-n-propylacetate) (Curve 3)
(b) An intravenous dose to rats of 200 mg/kg of sodium di-n-propylacetate (Curve 4) […] FIG. 6: represents blood-levels in di-n-propylacetic acid obtained from: […]
(b) An intravenous dose to rats of 200 mg/kg of sodium di-n-propylacetate (Curve 3) FIG. 7: represents blood-levels in di-n-propylacetic acid obtained from:
1,4-butanediol bis-(di-n-propylacetate) (Curve 1) or 2-buten-1,4-diol bis-(di-n-propylacetate) (cis isomer) (Curve 2) or 2-butyn-1,4-diol bis-(di-n-propylacetate) (Curve 3)

For data set [8] the following is noted: in vivo; cited from earlier work.
Data set [9] deals with Chronic cobalt-induced epilepsy. The data set is described as follows: Chronic cobalt-induced epilepsy. In kind it is in vivo, rats. As to conditions: 14 days i.p., sodium salt 2 x 200 mg/kg daily, Mixture A 400 mg/kg daily. How it is done:
This trial was performed in comparison with sodium di-n-propylacetate. Batches of rats were given for 14 days either two daily intraperitoneal doses of 200 mg/kg (morning and evening) of sodium di-n-propylacetate or a daily intraperitoneal dose of 400 mg/kg (evening) of a mixture of glyceryl 1,2- and 1,3-bis-(di-n-propylacetates) ("Mixture A").

“Also recorded” adds a separate entry of the source. Like-named read-outs stand apart in the source and are kept apart here. A value given as a limit tells only on which side of the number the result lay.

`CCCC(CCC)C(=O)O` [di-n-propylacetic acid, reference compound]: the “percentage of protection against the convulsive seizure” value in [1] (0.5 h) is given as 23%; in data set [1] (1 h) it was 0%; in data set [1] (2 h), 0%; in data set [1] (4 h) it was 0%; in [1] (8 h) it was 0%; in data set [1] (16 h) it was 0%.

`CCCC(CCC)C(=O)OCC(CO)OC(=O)C(CCC)CCC` (stereo not shown) [glyceryl 1,2-bis-(di-n-propylacetate), Glyceryl 1,2-bis-(di-n-propylacetate)]: the “release of di-n-propylacetic acid in the animal organism” value (“release … in the animal organism” for short) in data set [2] is listed as “possess the requisite qualities to enable di-n-propylacetic acid to be released in the animal organism at a decreasing rate”. For the same molecule, the “slow-release of di-n-propylacetic acid in the human body” value (“slow-release of di-n-propylacetic acid” for short) in data set [3] (po) is “can provide the slow-release of di-n-propylacetic acid in the human body to a degree which enables therapeutic blood-levels in this acid to be attained”. Moreover, the LD0 is recorded as above 2000 mg/kg in data set [4] (ip) and above 5000 mg/kg in data set [4] (po).

On to `CCCC(CCC)C(=O)OCC(O)COC(=O)C(CCC)CCC` [glyceryl 1,3-bis-(di-n-propylacetate), Glyceryl 1,3-bis-(di-n-propylacetate)], for which the “release … in the animal organism” value in data set [2] is “possess the requisite qualities to enable di-n-propylacetic acid to be released in the animal organism at a decreasing rate”. In data set [3], the “bioavailability compared with the 1,2-diester” value is listed as “better bioavailability than that of the corresponding 1,2-diester” and the “blood-levels in di-n-propylacetic acid compared with the 1,2-diester” value is “Very similar results”. Besides, the “slow-release of di-n-propylacetic acid” value in [3] (po) is reported as “can provide the slow-release of di-n-propylacetic acid in the human body to a degree which enables therapeutic blood-levels in this acid to be attained”.

As a reminder, the LD50 is the dose at which mortality reaches 50%. A lower LD50 goes with greater toxicity. In the case of `CCCC(CCC)C(=O)OCC(O)CO` (stereo not shown) [glyceryl 1-(di-n-propylacetate), Glyceryl 1-(di-n-propylacetate)], the “percentage of protection against the convulsive seizure” value is listed as 29% in data set [1] (0.5 h); 56% in data set [1] (1 h); 41% in data set [1] (2 h); 43% in [1] (4 h); 35% in [1] (8 h); 22% in data set [1] (16 h). For the same molecule, the “release … in the animal organism” value in [2] was “possess the requisite qualities to enable di-n-propylacetic acid to be released in the animal organism at a decreasing rate”. The “metabolism to glycerol and di-n-propylacetic acid” value in data set [3] is listed as “too rapid”. Moreover, the “slow-release of di-n-propylacetic acid” value in [3] (po) is given as “quite unable to induce a slow-release in di-n-propylacetic acid in the blood”. In addition, the LD50 in data set [5] was found to be 2360 mg/kg; in data set [6], 3360 mg/kg. Also, in data set [7], the “blood-levels in di-n-propylacetic acid (FIG. 1)” value is “resists the rapid elimination of this acid and maintains a high blood-level in this acid”.

Consider `CCCC(CCC)C(=O)OCC(COC(=O)C(CCC)CCC)OC(=O)C(CCC)CCC` [glyceryl tri-(di-n-propylacetate)], for which the “slow-release properties as reported in the literature” value in data set [8] is on record as “a remarkably useful substance which has all the properties expected of a slow-release preparation; also recorded: can act as a slow-release form of di-n-propylacetic acid”. Besides, the bioavailability entry in data set [3] (po) is reported as “poor bioavailability”. Besides, in data set [7], the bioavailability entry was “poor bioavailability”, the “maximum blood-levels in di-n-propylacetic acid” value is at most 10 µg/mL, the “time until di-n-propylacetic acid appeared in the blood” value is at least 150 min and the “value as a slow-release form of di-n-propylacetic acid” value was “of no value as a slow-release form of di-n-propylacetic acid”.

In the case of `CCCC(CCC)C(=O)[O-].[Na+]` [sodium di-n-propylacetate, reference compound], the “Number of seizures between the 7th and 14th day” value in data set [9] (controls 3.57) is reported as 1.25. The “Number of rats presenting at least one seizure” value in data set [9] (controls 7/7) is recorded as 3/4. Further, the “apparent half-life of di-n-propylacetic acid” value in data set [3] (human, po) stood at 11 h 35 min h min. Besides, the LD50 in data set [5] was found to be 1530 mg/kg; in data set [6] it was 1700 mg/kg.
